The values that follow are results of earlier work, collected in publication PMC13092032, “Unlocking the potential of alkaline polymethacrylates via ionic crosslinking in amorphous solid dispersions” (International Journal of Pharmaceutics: X, 2026).

What is called Log P is the decadic logarithm of the partition coefficient of the neutral form, usually between octanol and water.

The conditions of the series: Table 2; no method or source printed.

The structures appear in SMILES notation.

On to `Cc1ccc(-c2cc(C(F)(F)F)nn2-c2ccc(S(N)(=O)=O)cc2)cc1` [Celecoxib], for which the “Log P” value is 3.5.

For `O=C1Nc2ccc(Cl)cc2[C@@](C#CC2CC2)(C(F)(F)F)O1` [Efavirenz], the “Log P” value is listed as 4.7.
